17 compounds from patent US20140161729A1, “COFLUORONS AND METHODS OF MAKING AND USING THEM” (CORNELL UNIVERSITY, priority 2011, published 2014) can be followed below.

Series [1] can be described thus: Fluorescence measurements of cofluoron models (linker element monomers and their multimers with boronic acids). The format is physicochemical. Conditions: for fluorescence change on addition to linker element SL1 (2-hydroxy-3-naphthalenecarboxamide) / fluorescence change on addition to linker element SL3 (gallic acid ethanolamide): boronic acid 300 μM; for fluorescence change on addition to linker element SL1 (2-hydroxy-3-naphthalenecarboxamide): SL1 100 μM, FIG. 6A; for fluorescence change on addition to linker element SL3 (gallic acid ethanolamide): SL3 100 μM, FIG. 6B.

The next series has as its system human mast cell line. The experiment in a line: Intracellular fluorescence of cofluorons (microscopy under UV excitation). The format is cell-based. Conditions: 100 μM (each) cofluoron monomer. As for the experimental part: Human mast cell β2-tryptase containing cells, grown in standard media, were incubated with 100 μM monomer 1 for 15 minutes at room temperature, followed by the addition of 100 μM monomer 2. Stock concentrations of cofluorons, 50 mM in DMSO, were diluted in media immediately before use. For localization studies, 10.5% PEG and 0.0005% berberine were added to costain mast cell granules. Fluorescent signals were detected using an inverted CKX41 Olympus microscope under UV excitation and an 100× oil immersion lens. Images were recorded using an Olympus DP20 digital camera.

The nature of series [2]: Fluorescence measurements of cofluoron monomers and multimers without target. It is filed as physicochemical. Particulars: for maximum fluorescence emission / wavelength of maximum emission: 100 μM (each), 0.1M phosphate pH 7.4, 100 μM EDTA, excited at 300 nM. How it is done: The fluorescence properties of cofluorons were measured in 0.1M HEPES or 0.1M phosphate buffer at pH 7.4 in 96- or 384-well black plates using a Molecular Dynamics SpectraMax M5 plate reader. Cofluoron samples were excited at discrete wavelengths and the fluorescence emission was scanned across a range of wavelengths (between 400 and 750 nm). The fluorescence properties of individual cofluoron monomers, as well as the fluorescent properties of cofluoron multimers formed by association of different combinations of cofluoron monomers, were tested and compared.
Fluorescence emission spectra were recorded for cofluoron monomers T147 and T27F individually at a concentration of 100 μM as well as in combination where each cofluoron monomer was at a concentration of 100 μM, in a 0.1M phosphate buffer at pH 7.4 containing 100 μM EDTA. The samples were excited at 300 nM and fluorescence emissions were measured between 300-750 nm on a Spectramax M5 spectrofluorometer. […] The fluorescence emission was enhanced to 4062 RFU and the emission wavelength shifted to 420 nm when the two cofluoron monomers were combined (See FIG. 19).
FIGS. 21 through 34 show the results of fluorescent measurements on the monomers T27 or T27F containing a dihydroxy moiety and multimers formed by mixing the dihydroxy compound with various monomer binding partners containing a boronic acid. These multimers have increased affinity for human mast cell β2-tryptase as compared to the monomers. The fluorescence properties of cofluorons were measured 0.1M phosphate buffer at pH 7.4 containing either 100 or 200 μM EDTA, in 96- or 384-well black plates using a Molecular Dynamics SpectraMax M5 plate reader. Cofluoron samples were excited at discrete wavelengths and the fluorescence emission was scanned across a range of wavelengths (between 400 and 750 nm).

The next series concerns the target Tryptase (Homo sapiens, UniProt P20231). The series is described as follows: Fluorescence of cofluoron pairs in the presence or absence of Tryptase. It is filed as binding. Conditions: phosphate buffer pH 7.4, 200 mM NaCl, excited at 360 nm. How it is done:
The fluorescence emission measurements on cofluorons binding to the target tryptase were measured in 0.1M HEPES or 0.1M phosphate buffer at pH 7.4 in 96- or 384-well black plates using a Molecular Dynamics SpectraMax M5 plate reader. Cofluoron samples were excited at discrete wavelengths and the fluorescence emission was scanned across a range of wavelengths (between 400 and 750 nm). The fluorescence properties of cofluoron monomers and cofluoron multimers in the presence of 3 μM tryptase as well as in the absence of tryptase were measured and compared.
To test whether the cofluorons retained their fluorescence when binding to the target Tryptase, fluorescence were measured on the cofluoron multimers formed by mixing 6 μM T43 with 6 μM T34, T11, T35, and T37, respectively, in the presence or absence of 5 μM Tryptase, in aqueous 50 μM phosphate buffer (pH 7.4) containing 200 mM NaCl. Excitation was at 360 nm, and the portion of emission containing meaningful signal is between 400 nm and 550 nm.

Series [3] has as its target human mast cell β2-tryptase (Homo sapiens, UniProt P20231). The experiment in a line: Binding of cofluoron monomers and dimers to tryptase (IC50, affinity). Conditions: 1:1 combination with T27 or T27F.
Setting [4] is: 100 μM 2-hydroxy-3-naphthalenecarboxamide + 300 μM boronic acid, 0.1M phosphate pH 7.4, 50% DMSO, excited at 350 nm.

Tryptase, sequence (P20231 31-275): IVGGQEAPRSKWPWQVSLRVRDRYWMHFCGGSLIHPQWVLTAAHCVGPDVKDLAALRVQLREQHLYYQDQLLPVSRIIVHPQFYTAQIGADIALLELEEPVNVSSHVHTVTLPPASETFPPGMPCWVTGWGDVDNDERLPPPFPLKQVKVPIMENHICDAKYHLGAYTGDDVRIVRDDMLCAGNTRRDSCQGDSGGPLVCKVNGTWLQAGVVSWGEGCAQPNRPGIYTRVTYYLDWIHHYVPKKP
human mast cell β2-tryptase, sequence (P20231 31-275): as above

For the compound `CN(C)c1ccc(B(O)O)cn1` [2-(N,N-dimethylamino)pyridine-5-boronic acid], in series [1] (100 μM 7,8-dihydroxy-4-methylcoumarin + 300 μM boronic acid, 0.1M phosphate pH 7.4, 50% DMSO, excitation 350 nm, emission 520 nm), the “increase in fluorescence emission intensity of 7,8-dihydroxy-4-methylcoumarin on forming oligomer with boronic acid partner” value is given as “did not provide any enhanced signal”.
For the compound `OCc1ccccc1B(O)O` [2-(hydroxymethyl)phenylboronic acid], the “enhancement of fluorescent emission signals at 460 nm over monomer methyl 3,4,5-trihydroxybenzoate” value in series [1] (100 μM methyl 3,4,5-trihydroxybenzoate + 300 μM boronic acid, 0.1M phosphate pH 7.4, 50% DMSO, excited at 350 nm) is listed as “about 7 fold”.
As for `OB(O)c1ccccc1F` [2-fluorophenylboronic acid], in series [1] (multimer with 3,4,5-trihydroxybenzamide, 100 μM each, 0.1M HEPES pH 7.9, 50% DMSO, excited at 340 nm), the “fluorescent emission intensity at 390 nm, fold higher than 3,4,5-trihydroxybenzamide alone” value turned out to be 10 fold.
`OB(O)c1cccnc1F` [2-fluoropyridine-3-boronic acid]: in series [1] (setting [4]), the “enhancement of fluorescent emission signal at 420 nm over monomer 2-hydroxy-3-naphthalenecarboxamide” value was “more than 80 fold”.
With `NC(=O)c1cc2ccccc2cc1O` [2-hydroxy-3-naphthalenecarboxamide, 2-Hydroxy-3-naphthalenecarboxamide], the fluorescent emission maximum in series [1] (2-hydroxy-3-naphthalenecarboxamide 100 μM, alone or with 300 μM boronic acids, 0.1M phosphate pH 7.4, 50% DMSO, excited at 350 nm) was 500 nm; in series [1] (2-hydroxy-3-naphthalenecarboxamide alone or with boronic acids, phosphate pH 7.4, absence of DMSO, excited at 350 nm), “about 510 nm”.
In the case of `OB(O)c1cccnc1F` [2b, 2-fluoropyridine-3-boronic acid], in series [1], the “fluorescence change on addition to linker element SL1 (2-hydroxy-3-naphthalenecarboxamide)” value is “stronger fluorescent signal, as well as a fluorescent emission wavelength shift to a lower wavelength” and the “fluorescence change on addition to linker element SL3 (gallic acid ethanolamide)” value (“fluorescence change … (gallic acid ethanolamide)” below) was “stronger fluorescent signal, as well as a fluorescent emission wavelength shift to a higher wavelength”.
For the compound `OB(O)c1cc(F)cc(F)c1` [2c, 3,5-difluorophenylboronic acid], in series [1], the “fluorescence change on addition to linker element SL1 (2-hydroxy-3-naphthalenecarboxamide)” value is given as “stronger fluorescent signal, as well as a fluorescent emission wavelength shift to a lower wavelength” and the “fluorescence change … (gallic acid ethanolamide)” value was “stronger fluorescent signal, as well as a fluorescent emission wavelength shift to a higher wavelength”.
For the compound `OB(O)c1cc2ccccc2o1` [2d, benzofuran-2-boronic acid], in series [1], the “fluorescence change on addition to linker element SL1 (2-hydroxy-3-naphthalenecarboxamide)” value is on record as “stronger fluorescent signal, as well as a fluorescent emission wavelength shift to a lower wavelength” and the “fluorescence change … (gallic acid ethanolamide)” value is on record as “stronger fluorescent signal, as well as a fluorescent emission wavelength shift to a higher wavelength”.
Take `OB(O)c1cc(F)cc(F)c1` [3,5-difluorophenylboronic acid]: the “enhancement of fluorescent emission signal at 420 nm over monomer 2-hydroxy-3-naphthalenecarboxamide” value in series [1] (setting [4]) is listed as “about 40 fold”. In series [1] (100 μM 2-hydroxy-3-naphthalenecarboxamide + 300 μM boronic acid, phosphate pH 7.4, absence of DMSO, excited at 350 nm), the “fluorescent signal enhancement of multimer with 2-hydroxy-3-naphthalenecarboxamide” value amounted to 30 fold.
For `Cl.NCc1cccc(C2CCN(C(=O)/C=C/c3ccc(O)c(O)c3)CC2)c1` [T24, (E)-1-(4-(3-(aminomethyl)phenyl)piperidin-1-yl)-3-(3,4-dihydroxyphenyl)prop-2-en-1-one hydrochloride], in the series with human mast cell line, the “fluorescent staining of cells” value is “somewhat brighter staining”.
Regarding `NCc1ccc(F)c(C2CCN(C(=O)c3cccc4cc(O)c(O)cc34)CC2)c1` [T27F], in series [2], the maximum fluorescence emission worked out at 380 RFU and the “wavelength of maximum emission” value is recorded as 520 nm.
Take `NCc1cccc(C2CCN(C(=O)/C=C/c3cccc(B(O)O)c3)CC2)c1` [T34]: on Tryptase (6 μM each), the “fluorescent signal of dimer with T43 in the absence of tryptase” value is “hardly any fluorescent signal”. At Tryptase (pair with T43, 6 μM each, 5 μM Tryptase), the “fluorescent signal enhancement in the presence of tryptase versus in the absence of tryptase” value is on record as 3 fold.
As for `NCc1cccc(C2CCN(C(=O)c3cccc4sc(B(O)O)cc34)CC2)c1` [T37], the “fluorescent signal enhancement of multimer formed with T43, among all multimers tested” value in series [2] (100 μM T43 + 100 μM partner, 0.1M phosphate pH 7.4 aqueous, excited at 360 nm) is “strongest fluorescent signal enhancements”.
With `NCc1cccc(C2CCN(C(=O)/C=C/c3cc(O)c(O)c(O)c3)CC2)c1` [T43], the emission peak in series [2] (T43 100 μM, alone or with 100 μM boronic acid partners, 0.1M phosphate pH 7.4 aqueous, excited at 360 nm) was 440 nm. Besides, on Tryptase (6 μM), the “fluorescent signal between 400 nm and 550 nm, monomer without boronic acid partner” value is listed as “essentially no fluorescent signal”.
For `CN(Cc1ccccc1B(O)O)c1ccc(C(=O)N2CCC(c3cccc(CN)c3)CC2)cc1` [T147, (2-(((4-(4-(3-(aminomethyl)phenyl)piperidine-1-carbonyl)phenyl)(methyl)amino)methyl)phenyl)boronic acid], in series [2], the maximum fluorescence emission is recorded as 194 RFU and the “wavelength of maximum emission” value came to 390 nm. For the same compound, in series [3], the “affinity to human β-tryptase of dimer versus monomers” value is given as “higher affinity to human β-tryptase than either monomer”.
Turning to `OB(O)c1cc2ccccc2o1` [benzofuran-2-boronic acid], the “enhancement of fluorescent emission signal at 420 nm over monomer 2-hydroxy-3-naphthalenecarboxamide” value in series [1] (setting [4]) is reported as “about 40 fold”.
Take `COC(=O)c1cc(O)c(O)c(O)c1` [methyl 3,4,5-trihydroxybenzoate]: in series [1] (methyl 3,4,5-trihydroxybenzoate 100 μM, alone or with 300 μM boronic acids, 0.1M phosphate pH 7.4, 50% DMSO, excited at 350 nm), the fluorescent emission peak result was “about 390 nm”.
